Test results reported in patent US8974823B2, “Solid compositions of low-solubility drugs and poloxamers” (Bend Research, Inc., priority 2003, dated 2015).
One block for each molecule: values may come before it.

Tests used:
[1] = glass transition temperature (Tg) of the drug; type: physicochemical; settings: for Tg: Table B, unless noted Tg measured at less than 10% RH
Procedure: In a first aspect, the invention comprises a solid composition comprising a plurality of particles. The particles comprise a low-solubility drug and a poloxamer. The drug is in intimate contact with the poloxamer in the particles. Collectively, the drug and poloxamer constitute at least 50 wt % of the particles. At least a substantial portion of the drug in the composition is amorphous. The Tg of the drug is at least 50° C. Unless otherwise noted, as used herein the Tg refers to the Tg measured at less than 10% RH.
Such Tg values may represent that of drug dispersed in the amorphous portions of the poloxamer or the Tg of drug-rich phases or domains. […] The Tg of the drug may be at least about 60° C., at least about 70° C., or even at least about 80° C. The Tg of a drug can be determined using standard analytical techniques well known in the art, including by a dynamic mechanical analyzer (DMA), a dilatometer, a dielectric analyzer, and by differential scanning calorimetry (DSC).

[2] = in vitro dissolution test of Drug 4 compositions in PBS; type: physicochemical; settings: for AUC / Drug 4 Concentration: 1000 μg/mL if all dissolved; for Drug 4 Concentration: 37° C.
Procedure: The solid compositions of Examples 1-2 were evaluated in an in vitro dissolution test to ascertain concentration enhancement of Drug 1. A […] sample of each solid composition was added in duplicate to a microcentrifuge tube, so that the total concentration of Drug 1 would have been 2000 μg/mL if all of the drug had dissolved. The tubes were placed in a 37° C. temperature-controlled chamber, and 1.8 mL PBS containing 0.5 wt % sodium taurocholic acid and 1-palmitoyl-2-oleyl-sn-glycero-3-phosphocholine (NaTC/POPC, with a 4/1 weight ratio) at pH 6.5 and 290 mOsm/kg (simulating a Model Fasted Duodenal solution) was added to each respective tube. The samples were quickly mixed using a vortex mixer for about 60 seconds. The samples were centrifuged at 13,000 G at 37° C. for 1 minute. The resulting supernatant solution was then sampled and diluted 1:6 (by volume) with methanol and then analyzed by high-performance liquid chromatography (HPLC). The contents of each respective tube were mixed on a vortex mixer and allowed to stand undisturbed at 37° C. until the next sample was taken. Samples were collected at 4, 10, 20, 40, 90, and 1200 minutes.
The solid compositions of Examples 10-13 were evaluated in an in vitro dissolution test as in Examples 1-2, except that the dissolution medium was PBS. The amount of each composition added to the microcentrifuge tube was adjusted so that the concentration of Drug 4 in solution if all of the drug had dissolved was 1000 μg/mL.
The spray-dried compositions of Examples 14-15 were evaluated in an in vitro dissolution test as in Examples 10-13. The amount of each composition added to the microcentrifuge tube was adjusted so that the concentration of Drug 4 in solution if all of the drug had dissolved was […].
This composition was evaluated in an in vitro dissolution test as in Examples 10-13.

Molecule: CC(C)c1c(C(=O)Nc2ccccc2)c(-c2ccccc2)c(-c2ccc(F)cc2)n1CCC(O)CC(O)CC(=O)[O-].CC(C)c1c(C(=O)Nc2ccccc2)c(-c2ccccc2)c(-c2ccc(F)cc2)n1CCC(O)CC(O)CC(=O)[O-].O.O.O.[Ca+2] (stereo not drawn) [2-(4-fluorophenyl)-beta, delta-dihydroxy-5-(1-methylethyl)-3-phenyl-4-[(phenylamino)carbonyl]-1H-pyrrole-1-heptanoic acid, calcium salt (2:1), trihydrate]
Tg [1]: 111 °C

Molecule: 4-[3-[4-(2-methylimidazol-1-yl) phenylthio] phenyl]-3,4,5,6-tetrahydro-2H-pyran-4-carboxamide hemifumarate
Tg [1]: 81 °C

Molecule: O=C(NC(Cc1ccccc1)C(=O)N1CC(O)C1)c1cc2cc(Cl)ccc2[nH]1 (centres unmarked) [5-chloro-1H-indole-2-carboxylic acid [(1)-benzyl-2-(3-hydroxy-azetidin-1-yl)-2-oxo-ethyl]-amide]
Tg [1]: 91 °C

Molecule: CCOC(=O)N1c2ccc(C(F)(F)F)cc2[C@@H](N(Cc2cc(C(F)(F)F)cc(C(F)(F)F)c2)C(=O)OC)C[C@H]1CC [Control C6, Torcetrapib]
Cmax90 ([2]; Drug 4, initial 90 minutes): <1 µg/mL
AUC90 ([2]; Drug 4, initial 90 minutes, Table 12): < 88 µg·min/mL
AUC90 ([2]; Drug 4, initial 90 minutes, Table 15): <88 min-μg/mL
AUC90 ([2]; Drug 4, initial 90 minutes, Table 18): <88 µg·min/mL
AUC ([2]; Drug 4, time 0 min): 0 min-μg/mL
AUC ([2]; Drug 4, time 4 min): <2 min-μg/mL
AUC ([2]; Drug 4, time 10 min): <8 min-μg/mL
AUC ([2]; Drug 4, time 20 min): <18 min-μg/mL
AUC ([2]; Drug 4, time 40 min): <38 min-μg/mL
AUC ([2]; Drug 4, time 90 min): <88 min-μg/mL
AUC ([2]; Drug 4, time 1200 min): <1,200 min-μg/mL
Drug 4 Concentration ([2]; time 0 min): 0 µg/mL
Drug 4 Concentration ([2]; time 4 min): <1 µg/mL
Drug 4 Concentration ([2]; time 10 min): <1 µg/mL
Drug 4 Concentration ([2]; time 20 min): <1 µg/mL
Drug 4 Concentration ([2]; time 40 min): <1 µg/mL
Drug 4 Concentration ([2]; time 90 min): <1 µg/mL
Drug 4 Concentration ([2]; time 1200 min): <1 µg/mL

Molecule: C[C@@H]1CC[C@@]2(OC1)O[C@H]1C[C@H]3[C@@H]4CC[C@H]5C[C@@H](O[C@@H]6O[C@H](CO)[C@@H](O[C@@H]7O[C@H](COC(=O)Nc8ccccc8F)[C@@H](OC(=O)Nc8ccccc8F)[C@H](O)[C@H]7O)[C@H](O)[C@H]6O)CC[C@]5(C)[C@H]4CC(=O)[C@]3(C)[C@H]1[C@@H]2C [3-[(4-O-{4,6-bis(2-flurophenylcarbamoyl)]-β-D-glucopyranolsyl-)β-D-flucopyranosyl]oxy-(3β,5α,25R)-spirostan-12-one]
Tg [1]: 143 °C

Other lines, results leading:

Tg [1]: 53 °C
Molecule: O=C(O)c1ccc(C(F)(F)F)cc1-c1ccc2c(c1)OCC(Cc1ccccc1)C2O (single isomer, unassigned; (+)) [(+)-2-(3-benzyl-4hydroxy-chroman-7-yl)-4-trifluoromethyl-benzoic acid]

Tg [1]: 112 °C
Molecule: Cl.Cl.O=C(O)COCCN1CCN(C(c2ccccc2)c2ccc(Cl)cc2)CC1 (centres unmarked) [(2(-(4-((4-chlorophenyl)phenylmethyl)-1-piperazinyl)ethoxy)acetic acid, dihrochloride]

Tg [1]: 87 °C
Molecule: CCC(CC)Nc1cc(C)nc(Oc2c(C)cc(C)cc2C)c1C.Cl [[3,6-dimethyl-2-(2,4,6-trimethyl-phenoxy)-pyridin-4-yl]-(1-ethyl-propyl)-amine hydrochloride]

Tg [1]: 80 °C
Molecule: CON(C)C(=O)C(O)[C@H](Cc1ccccc1)NC(=O)c1cc2cc(Cl)ccc2[nH]1 (stereo in doubt) [[R—(R*,S*)]-5-chloro-N-[2-hydroxy-3-[(methoxymethylamino)-3-oxo-1-(phenylmethyl)propyl]propyl]-1H-indole-2-carboxamide]

Tg [1]: 96 °C
Tg,drug ([1]; at ambient RH): 113 °C
Molecule: O=C(N[C@@H](Cc1ccccc1)[C@@H](O)C(=O)N1C[C@@H](O)[C@@H](O)C1)c1cc2cc(Cl)ccc2[nH]1 [Drug 1, 5-chloro-1H-indole-2-carboxylic acid [(1S)-benzyl-(2R)-hydroxy-3-((3R,4S)-dihydroxy-pyrrolidin-1-yl-)-3-oxypropyl]amide]

Tg [1]: 72 °C
Molecule: O=C1Cc2cc(CCN3CCN(c4nsc5ccccc45)CC3)c(Cl)cc2N1 [Ziprasidone]
